Assay results from US10736965B2, “Risperidone biodegradable implant” (The Trustees of the University of Pennsylvania, priority 2004, dated 2020).
In brackets after ≈: the same amount, converted by molar mass. Where two headings read alike, the source gives them in different places. One block for each compound: values may come before it.

Assays:
Drug solubility in water = type: physicochemical; settings: measured after 14 days, distilled water, 21° C.; for solubility at 14 days: thermodynamic from solid
Excerpt: 1-mL aliquots were removed at fixed time intervals and analyzed by UV Spectroscopy to determine maximum saturation concentration.

[1] = In vitro drug release assay from 50:50 PLGA pellets, fit to equation (4); type: physicochemical; settings: for k (degradation reaction rate): fit of FIG. 10 data to equation (4), 50:50 PLGA, 20% drug load; for Onset of drug release (induction time): 50:50 PLGA pellets, PBS 37° C.; for k, fit parameter: FIG. 11 legend
Method: 400 mg of 50:50 PLGA and 100 mg of drug were solvent cast to obtain a 20% by mass drug-load. Polymer and drug were dissolved in 45 milliliters (mL) acetone (Fisher Scientific, Inc.) and vortexed, then poured into an evaporation dish and placed in a vacuum oven at 40° C. under vacuum (3 inches Hg) with trace airflow. After seven days, dishes were removed from the oven. Evaporation residue was a thin film mixture of polymer and drug with homogenous appearance. The film was carefully weighed to confirm complete removal of solvent and pressed into four uniform disk-shaped pellets with 1 mm thickness and […], using a Teflon®-coated pellet press set at 25 (kilo-pounds) klb and 60° C. Pellets were carefully weighed and measured to determine densities. Negative control pellets with a 0% drug load were fabricated in the same manner, using 500 mg polymer and no drug.
Assays were performed in triplicate using three of each set of four uniform pellets. Each pellet was added to an amber-glass, capped jar (Wheaton, Inc.) containing 500 mL of a PBS solution and subjected to moderate shaking in the dark, at 37° C. 1-mL aliquots of were analyzed by UV Spectroscopy at fixed time intervals and. Positive control jars contained PBS and 10 mg of drug, the expected maximum release for a 20% drug-loaded pellet with a mass of 50 mg, and were also used to determine stability of each drug in saline solution over the course of the experiment.
The degradation reaction is likely to be a […] reaction between the polymer and water, and is thus proportional to the local concentration of both species. However, since the polymer comprises the majority of the pellet, its concentration is fixed everywhere. Thus, the degradation reaction is proportional to the local concentration of water (a function of the diffusivity) times a constant. Defining the diffusion coefficient of water into the polymer pellet as D, the diffusion/reaction equation for water is written as (1): […]
The model described by Equation (4) fit well the drug release data shown in FIG. 10 for all six drugs tested, with values of D and k as listed in Table 2 (the curves for haloperidol and aspirin are depicted in FIG. 11). This is notable because the drugs tested are diverse; e.g. haloperidol and aspirin are very different. The deviations seen at late time points arose from the finite size of the pellets.

in vivo = settings: rabbit
Excerpt: The concentration of drug as a function of time is a complex function. The error function can be approximated as erf(x)˜1−e^−7x/4, yielding equation 10 for the drug concentration. a1 is a constant equal to the total drug content of the implant, variable a2 is a constant equal to the metabolic rate, variable a3 reflects diffusion of drug from the implant and variable a4 reflects polymer degradation and influences total release interval.

[2] = type: physicochemical
Method: To evaluate the long-term stability of risperidone in physiological solution, 10 mg Risperidone was dissolved in 100 μl of acetonitrile for subsequent dissolution in 1,000 ml of PBS (0.9% NaCl, 0.01 M NaOH, 0.01 M NaH2PO4, pH 7.0) to yield a final solution of 10,000 nanograms (ng)/ml. The solution was shaken at 40 revolutions per minute in a light-safe amber bottle at 37° C. Drug concentration of a 1-ml sample was measured three times per week by UV spectroscopy (Amersham Biosciences, Buckinghamshire, UK). […] Studies were replicated using UV spectrophotometry and HPLC (FIG. 5).

[3] = first 77 days

- Water solubility (Drug solubility in water): 4990 µg/mL
- k (degradation reaction rate) [1]: 0.06 day⁻¹
Structure (SMILES): CC(=O)Oc1ccccc1C(=O)O [Aspirin, 2-acetyloxybenzoic acid]

- solubility at 14 days (Drug solubility in water): 500 µg/mL (≈ 1440 µM)
- k (degradation reaction rate) [1]: 0.33 day⁻¹
Structure (SMILES): CC12CCC(=O)C=C1CCC1C2C(O)CC2(C)C(C(=O)CO)CCC12 (stereo not drawn) [Corticosterone, 11-hydroxy-17-(2-hydroxyacetyl)-10,13-dimethyl-1,2,6,7,8,9,10,11,12,13,14,15,16,17-tetradecahydrocyclopenta[a]phenanthren-3-one]

- k (degradation reaction rate) [1]: 0.26 day⁻¹
Structure (SMILES): NS(=O)(=O)c1cc2c(cc1Cl)NCNS2(=O)=O [HCTZ, 9-chloro-5,5-dioxo-5λ6-thia-2,4-diazabicyclo[4.4.0]deca-6,8,10-triene-8-sulfonamide]

- solubility at 14 days (Drug solubility in water): 130 µg/mL (≈ 346 µM)
- Onset of drug release (induction time) [1]: exhibited an induction time
- k (degradation reaction rate) [1]: 0.07 day⁻¹
- Coefficient τ (in vivo): ≈ 0.027
- half-life (in vivo): ~2.17 h
Structure (SMILES): O=C(CCCN1CCC(O)(c2ccc(Cl)cc2)CC1)c1ccc(F)cc1 [Haloperidol, 4-[4-(4-chlorophenyl)-4-hydroxy-1-piperidyl]-1-(4-fluorophenyl)-butan-1-one]
- k, fit parameter [1]: approximately 0.1 1/days

- solubility at 14 days (Drug solubility in water): 470 µg/mL (≈ 2280 µM)
- k (degradation reaction rate) [1]: 0.16 day⁻¹
Structure (SMILES): CC(C)Cc1ccc(C(C)C(=O)O)cc1 (stereo not drawn) [Ibuprofen, 2-[4-(2-methylpropyl)phenyl]propanoic acid]
- k, fit parameter [1]: approximately 0.164 1/days

Structure (SMILES): Cc1nc2n(c(=O)c1CCN1CCC(c3noc4cc(F)ccc34)CC1)CCCC2 [Risperidone]
- Stability in physiological solution [2]: stable
- Change in concentration of drug per day ([2]; PBS pH 7.0, 37° C.): 0.004 % per day
- Change in concentration of drug ([2]; over 343 days, PBS pH 7.0, 37° C., UV spectroscopy): 1.4%
- Daily change in drug mass ([3]; pH 4.4): 0.00%
- Daily change in drug mass ([3]; pH 5.4): 0.10%
- Daily change in drug mass ([3]; pH 6.4): 0.04%
- Daily change in drug mass ([3]; pH 7.4): 0.06%

- solubility at 14 days (Drug solubility in water): 140 µg/mL (≈ 316 µM)
- k (degradation reaction rate) [1]: 0.06 day⁻¹
Structure (SMILES): CN1CCN(CCC=C2c3ccccc3Sc3ccc(S(=O)(=O)N(C)C)cc32)CC1 [Thiothixene, N,N-dimethyl-9-[3-(4-methylpiperazin-1-yl)propylidene]thioxanthene-2-sulfonamid]
- Onset of drug release (induction time) [1]: released as soon as the experiment begins
